Values of other authors, collected in US12533310B2, “Fragrance or flavor composition” (Takasago International Corporation, priority 2019, dated 2026).

What was measured:
[1] = target: T1, olfactory receptor OR2W1 (Homo sapiens, UniProt Q9Y3N9); settings: background art, Patent Literature 4; cited from earlier work
T1 sequence (Q9Y3N9 1-320): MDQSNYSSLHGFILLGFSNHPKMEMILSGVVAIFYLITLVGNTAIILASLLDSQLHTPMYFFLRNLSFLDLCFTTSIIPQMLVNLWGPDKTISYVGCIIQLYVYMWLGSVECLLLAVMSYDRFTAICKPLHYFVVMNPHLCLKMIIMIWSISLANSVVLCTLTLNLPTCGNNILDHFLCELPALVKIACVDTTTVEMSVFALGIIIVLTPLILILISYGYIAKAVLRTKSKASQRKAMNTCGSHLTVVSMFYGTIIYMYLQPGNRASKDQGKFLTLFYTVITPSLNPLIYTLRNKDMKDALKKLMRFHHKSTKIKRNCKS

[2] = background art, Patent Literature 4; cited from earlier work

CC(C)c1cccc(C(C)CC=O)c1 (centres unmarked) [florhydral]
inhibition of the activity of OR2W1 [1]: inhibiting the activity of this OR2W1
suppression of offensive odor induced by hexanoic acid in sensory testing [2]: suppress an offensive odor induced by hexanoic acid
